Biological target: T1, KDM5A (Homo sapiens, UniProt P29375)
T1 construct: Full length recombinant Flag tagged KDM5A protein was purified from Sf9 insect cells; Flag; made in house; host or cells: Sf9 insect cells
Test: KDM5A Demethylase Assay (TR-FRET Assay-B)
Format: biochemical
Settings: full length recombinant Flag tagged KDM5A, 2 nM, TrisCl pH 7.4, 3.0 μM α-ketoglutarate, read-out: B KDM5A HTRF (IC50)
Experimental: Full length recombinant Flag tagged KDM5A protein was purified from Sf9 insect cells. The demethylation reaction buffer contained 50 mM TrisCl pH 7.4, 0.01% Triton X-100, 0.025 mg/mL BSA, 1 mM ascorbate, 2 mM TCEP, 3.0 μM α-ketoglutarate, and 50 μM Fe2(NH4)2(SO4)2. […] After a one hour incubation assays were read on a Perkin-Elmer Envision equipped with a laser source and appropriate filters.

T1 sequence (P29375 whole entry): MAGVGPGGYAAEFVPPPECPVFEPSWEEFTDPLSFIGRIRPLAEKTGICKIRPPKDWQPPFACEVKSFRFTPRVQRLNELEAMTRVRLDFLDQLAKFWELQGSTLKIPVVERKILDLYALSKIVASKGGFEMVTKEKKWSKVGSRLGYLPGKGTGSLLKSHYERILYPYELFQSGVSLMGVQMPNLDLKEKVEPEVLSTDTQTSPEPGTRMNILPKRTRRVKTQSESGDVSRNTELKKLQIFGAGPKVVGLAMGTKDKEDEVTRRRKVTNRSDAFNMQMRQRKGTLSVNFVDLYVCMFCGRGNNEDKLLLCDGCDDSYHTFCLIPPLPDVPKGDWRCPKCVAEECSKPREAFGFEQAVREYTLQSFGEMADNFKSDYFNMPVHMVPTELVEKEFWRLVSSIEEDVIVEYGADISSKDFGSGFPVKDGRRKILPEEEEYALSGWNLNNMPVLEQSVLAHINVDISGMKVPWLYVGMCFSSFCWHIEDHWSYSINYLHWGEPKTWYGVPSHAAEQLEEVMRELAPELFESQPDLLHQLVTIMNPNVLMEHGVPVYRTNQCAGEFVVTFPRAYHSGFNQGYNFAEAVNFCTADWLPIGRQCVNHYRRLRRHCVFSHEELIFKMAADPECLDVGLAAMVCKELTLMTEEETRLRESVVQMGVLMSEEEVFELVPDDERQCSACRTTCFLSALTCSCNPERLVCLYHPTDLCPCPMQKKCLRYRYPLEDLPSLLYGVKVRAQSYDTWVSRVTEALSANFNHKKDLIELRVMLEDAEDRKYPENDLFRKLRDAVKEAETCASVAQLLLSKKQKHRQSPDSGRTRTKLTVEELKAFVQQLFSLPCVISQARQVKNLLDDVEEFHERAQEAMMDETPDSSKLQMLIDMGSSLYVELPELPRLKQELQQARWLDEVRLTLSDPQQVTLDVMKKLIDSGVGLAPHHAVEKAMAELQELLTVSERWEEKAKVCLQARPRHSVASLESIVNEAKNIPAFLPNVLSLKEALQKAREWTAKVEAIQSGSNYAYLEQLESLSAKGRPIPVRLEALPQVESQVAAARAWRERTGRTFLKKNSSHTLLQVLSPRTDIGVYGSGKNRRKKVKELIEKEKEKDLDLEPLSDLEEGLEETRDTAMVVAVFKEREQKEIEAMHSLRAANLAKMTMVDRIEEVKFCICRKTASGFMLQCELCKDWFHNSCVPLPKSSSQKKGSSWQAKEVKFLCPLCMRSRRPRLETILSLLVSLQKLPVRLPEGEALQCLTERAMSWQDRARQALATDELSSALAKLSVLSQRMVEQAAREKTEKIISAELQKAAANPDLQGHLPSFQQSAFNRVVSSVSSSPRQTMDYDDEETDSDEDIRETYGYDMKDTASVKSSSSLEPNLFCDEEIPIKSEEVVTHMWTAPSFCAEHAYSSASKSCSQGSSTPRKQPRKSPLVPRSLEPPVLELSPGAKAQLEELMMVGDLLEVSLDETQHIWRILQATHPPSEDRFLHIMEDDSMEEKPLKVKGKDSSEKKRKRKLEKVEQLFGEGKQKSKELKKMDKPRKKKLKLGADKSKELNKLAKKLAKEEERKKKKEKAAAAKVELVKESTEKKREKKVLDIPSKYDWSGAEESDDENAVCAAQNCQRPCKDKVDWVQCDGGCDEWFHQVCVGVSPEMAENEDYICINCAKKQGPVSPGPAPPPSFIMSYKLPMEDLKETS

Work on `CCc1c(C)[nH]c2c(-c3cnn(-c4ncc(C)cn4)c3)cnn2c1=O` [Example 2, 6-ethyl-5-methyl-3-(1-(5-methylpyrimidin-2-yl)-1H-pyrazol-4-yl)pyrazolo[1,5-a]pyrimidin-7(4H)-one] yielded an IC50 of 0.0161 µM.

For `CCc1c(C)[nH]c2c(-c3cnn(-c4ccncn4)c3)cnn2c1=O` [Example 3, 6-ethyl-5-methyl-3-(1-(pyrimidin-4-yl)-1H-pyrazol-4-yl)pyrazolo[1,5-a]pyrimidin-7(4H)-one], the IC50 was 0.158 µM.

For `CCc1c(C)[nH]c2c(-c3cnn(-c4nccc(N(C)C)n4)c3)cnn2c1=O` [Example 4, 3-(1-(4-(dimethylamino)pyrimidin-2-yl)-1H-pyrazol-4-yl)-6-ethyl-5-methylpyrazolo[1,5-a]pyrimidin-7(4H)-one], the IC50 was 0.047 µM.

`CCc1c(C)[nH]c2c(-c3cnn(-c4ncc(N(C)C)cn4)c3)cnn2c1=O` [Example 5, 3-(1-(5-(dimethylamino)pyrimidin-2-yl)-1H-pyrazol-4-yl)-6-ethyl-5-methylpyrazolo[1,5-a]pyrimidin-7(4H)-one] showed an IC50 of 0.0603 µM.

Compound `CCc1c(C)[nH]c2c(-c3cnn(-c4nccc(N5CCCC5)n4)c3)cnn2c1=O` [Example 6, 6-ethyl-5-methyl-3-(1-(4-(pyrrolidin-1-yl)pyrimidin-2-yl)-1H-pyrazol-4-yl)pyrazolo[1,5-a]pyrimidin-7(4H)-one] has an IC50 of 0.0529 µM.

For `CCc1c(C)[nH]c2c(-c3cnn(-c4nccc(OC)n4)c3)cnn2c1=O` [Example 7, 6-ethyl-3-(1-(4-methoxypyrimidin-2-yl)-1H-pyrazol-4-yl)-5-methylpyrazolo[1,5-a]pyrimidin-7(4H)-one], the IC50 was 0.0086 µM.

`CCc1c(C)[nH]c2c(-c3cnn(-c4nccs4)c3)cnn2c1=O` [Example 8, 6-ethyl-5-methyl-3-(1-(thiazol-2-yl)-1H-pyrazol-4-yl)pyrazolo[1,5-a]pyrimidin-7(4H)-one] showed an IC50 of 0.136 µM.

For `CCc1c(C)[nH]c2c(-c3cnn(-c4cc(C5CC5)ccn4)c3)cnn2c1=O` [Example 9, 3-(1-(4-cyclopropylpyridin-2-yl)-1H-pyrazol-4-yl)-6-ethyl-5-methylpyrazolo[1,5-a]pyrimidin-7(4H)-one], the IC50 was 0.0166 µM.

`CCc1c(C)[nH]c2c(-c3cnn(-c4cc(C(=O)O)ccn4)c3)cnn2c1=O` [Example 10, 2-(4-(6-ethyl-5-methyl-7-oxo-4,7-dihydropyrazolo[1,5-a]pyrimidin-3-yl)-1H-pyrazol-1-yl)isonicotinic acid] gave an IC50 of 0.201 µM.

With `CCc1c(C)[nH]c2c(-c3cnn(-c4cc(CO)ccn4)c3)cnn2c1=O` [Example 11, 6-ethyl-3-(1-(4-(hydroxymethyl)pyridin-2-yl)-1H-pyrazol-4-yl)-5-methylpyrazolo[1,5-a]pyrimidin-7(4H)-one] the IC50 was 0.0023 µM.

For `CCc1c(C)[nH]c2c(-c3cnn(-c4ccc(CO)cn4)c3)cnn2c1=O` [Example 12, 6-ethyl-3-(1-(5-(hydroxymethyl)pyridin-2-yl)-1H-pyrazol-4-yl)-5-methylpyrazolo[1,5-a]pyrimidin-7(4H)-one], the IC50 was 0.0313 µM.

`CCc1c(C)[nH]c2c(-c3cnn(-c4cc(Cl)ccn4)c3)cnn2c1=O` [Example 13, 3-(1-(4-chloropyridin-2-yl)-1H-pyrazol-4-yl)-6-ethyl-5-methylpyrazolo[1,5-a]pyrimidin-7(4H)-one] was tested, and the IC50 was 0.0661 µM.

In the case of `CCc1c(C)[nH]c2c(-c3cnn(-c4ncccn4)c3)cnn2c1=O` [Example 14, 6-ethyl-5-methyl-3-(1-(pyrimidin-2-yl)-1H-pyrazol-4-yl)pyrazolo[1,5-a]pyrimidin-7(4H)-one], the IC50 is reported as 0.0165 µM.

`CCc1c(C)[nH]c2c(-c3cnn(-c4cc(OC)ccn4)c3)cnn2c1=O` [Example 15, 6-ethyl-3-(1-(4-methoxypyridin-2-yl)-1H-pyrazol-4-yl)-5-methylpyrazolo[1,5-a]pyrimidin-7(4H)-one] was tested, and the IC50 was 0.0661 µM.

Work on `CCc1c(C)[nH]c2c(-c3cnn(-c4cc(N(C)C)ccn4)c3)cnn2c1=O` [Example 16, 3-(1-(4-(dimethylamino)pyridin-2-yl)-1H-pyrazol-4-yl)-6-ethyl-5-methylpyrazolo[1,5-a]pyrimidin-7(4H)-one] yielded an IC50 of 0.406 µM.
